Measurements from patent US5583115A, “Dialkyltiacumicin compounds” (Abbott Laboratories, priority 1995, dated 1996).
In brackets after ≈: the same amount, converted by molar mass. Where two headings read alike, the source gives them in different places.

Columns and labels:
P. species = experiment: MIC agar dilution, anaerobic bacteria; format: cell-based; details: 20 h; Culture # 1776; read-out: MIC
[1] = tested on: Peptostreptococcus asaccharolyticus; experiment: MIC agar dilution, anaerobic bacteria; format: cell-based; details: Peptoniphilus asaccharolyticus, 20 h
B. vulgatus = experiment: MIC agar dilution, anaerobic bacteria; format: cell-based
Bacteriodes fragilis = experiment: MIC agar dilution, anaerobic bacteria; format: cell-based; details: 20 h
B. disiens = experiment: MIC agar dilution, anaerobic bacteria; format: cell-based; details: Prevotella disiens, 20 h
Fusobacterium species = experiment: MIC agar dilution, anaerobic bacteria; format: cell-based; details: Fusobacterium, 20 h
B. thetaiotaomicron = experiment: MIC agar dilution, anaerobic bacteria; format: cell-based
B. bivius = experiment: MIC agar dilution, anaerobic bacteria; format: cell-based; details: Prevotella bivia, 20 h
C. ramosum = experiment: MIC agar dilution, anaerobic bacteria; format: cell-based; details: Thomasclavelia ramosa, 20 h
C. difficile = experiment: MIC agar dilution, anaerobic bacteria; format: cell-based; details: Clostridioides difficile, 20 h
Veillonella parvula = experiment: MIC agar dilution, anaerobic bacteria; format: cell-based; details: Veillonella parvula, 20 h
Propionibacterium acnes = experiment: MIC agar dilution, anaerobic bacteria; format: cell-based; details: Cutibacterium acnes, 20 h
Clostridium perfringens = experiment: microbe, parasite or virus in culture; format: cell-based; details: Clostridium perfringens, 20 h
P. anaerobius = experiment: MIC agar dilution, anaerobic bacteria; format: cell-based; details: Peptostreptococcus anaerobius, 20 h
Fusobacterium nucleatum = experiment: MIC agar dilution, anaerobic bacteria; format: cell-based; details: Fusobacterium nucleatum, 20 h
B. loescheii = experiment: MIC agar dilution, anaerobic bacteria; format: cell-based; details: Hoylesella loescheii, 20 h
P. magnus = experiment: MIC agar dilution, anaerobic bacteria; format: cell-based; details: Finegoldia magna, 20 h
Enterobacter aerogenes = experiment: MIC agar dilution, aerobic and facultative bacteria; details: Klebsiella aerogenes, 20 h
Klebsiella pneumoniae = experiment: as above; details: Klebsiella pneumoniae, 20 h
Enterococcus faecium = experiment: as above; details: Enterococcus faecium, 20 h
Pseudomonas aeruginosa = experiment: as above
S. pyogenes = experiment: as above; details: Streptococcus pyogenes, 20 h
S. epidermidis = experiment: as above; details: Staphylococcus epidermidis, 20 h
Streptococcus bovis = experiment: as above; details: Streptococcus equinus, 20 h
Providencia stuartii = experiment: as above; details: Providencia stuartii, 20 h
Staphylococcus aureus = experiment: as above; details: Staphylococcus aureus, 20 h
Clostridium difficile = experiment: In vivo hamster model of pseudomembranous Clostridium difficile induced colitis; details: for % Mortality: days 8-14, expiring by day 20
Protocol: (Suppression of normal gastrointestinal bacteria by the ciprofloxacin permitted the drug-resistant C. difficile to predominate.) Five additional hamsters were segregated as a noninfected control group.
The infected animals were divided into three groups comprising (a) 10 untreated animals; (b) 15 vancomycin-treated animals (5 each at 20, 10 and 1 mg/kg/day orally on days 8-14); and (c) 10 animals treated with the compound of Example 2 (5 each at 10 and 1 mg/kg/day on days 8-14). The subject animals were monitored for (a) body weight (infected hamsters lose significant body mass), and (b) mortality (percent expiring by day 20).

[2] = tested on: Acinetobacter calcoaceticus; experiment: MIC agar dilution, aerobic and facultative bacteria; details: Acinetobacter calcoaceticus, 20 h
E. coli = experiment: as above; format: cell-based; details: Escherichia coli, 20 h, read-out: MIC
Streptococcus agalactiae = experiment: as above; details: Streptococcus agalactiae, 20 h
P. cepacia = experiment: as above; details: Burkholderia cepacia, 20 h
Micrococcus luteus = experiment: as above; details: Micrococcus luteus, 20 h
[3] = Bacteroides thetaiotaomicron, 20 h, Culture # 1764, read-out: MIC

**Q.** What does the source list for `CCC[C@@H]1C[C@@H](C(=O)N[C@@H]([C@H]2O[C@H](SC)[C@H](O)[C@@H](O)[C@H]2O)[C@H](C)Cl)N(C)C1` [Clindamycin]?
**A.** MIC (P. species): 0.06 µg/mL (≈ 0.141 µM); MIC ([1]; Culture # 1777, read-out: MIC): 0.03 µg/mL (≈ 0.0706 µM); MIC (B. vulgatus; Culture # 2481): 0.03 µg/mL (≈ 0.0706 µM); MIC (B. vulgatus; Phocaeicola vulgatus, 20 h, Culture # 1762, read-out: MIC): 0.03 µg/mL (≈ 0.0706 µM); MIC (Bacteriodes fragilis; Culture # 1756, Wilkins-Chalgren agar, 37° C., 48 hours, read-out: MIC): 1 µg/mL (≈ 2.35 µM); MIC (Bacteriodes fragilis; Culture # 1757, read-out: MIC): 1 µg/mL (≈ 2.35 µM); MIC (Bacteriodes fragilis; Culture # 1758, read-out: MIC): 0.5 µg/mL (≈ 1.18 µM); MIC (Bacteriodes fragilis; Culture # 1999, read-out: MIC): 1 µg/mL (≈ 2.35 µM); MIC (B. disiens; Culture # 1763, read-out: MIC): 0.015 µg/mL (≈ 0.0353 µM); MIC (Fusobacterium species; Culture # 1770, read-out: MIC): 0.12 µg/mL (≈ 0.282 µM); MIC (B. thetaiotaomicron; [3]): 4 µg/mL (≈ 9.41 µM); MIC (B. thetaiotaomicron; Culture # 1765): 4 µg/mL (≈ 9.41 µM); MIC (B. thetaiotaomicron; Culture # 1766): 4 µg/mL (≈ 9.41 µM); MIC (B. bivius; Culture # 2483, read-out: MIC): 0.015 µg/mL (≈ 0.0353 µM); MIC (C. ramosum; Culture # 2482, read-out: MIC): 1 µg/mL (≈ 2.35 µM); MIC (C. difficile; Culture # 1496, read-out: MIC): > 32 µg/mL; MIC (C. difficile; Culture # 1497, read-out: MIC): > 32 µg/mL; MIC (C. difficile; Culture # 1774, read-out: MIC): 0.5 µg/mL (≈ 1.18 µM); MIC (C. difficile; Culture # 2025, read-out: MIC): 4 µg/mL (≈ 9.41 µM); MIC (C. difficile; Culture # 2480, read-out: MIC): 4 µg/mL (≈ 9.41 µM); MIC (C. difficile; Culture # 2528, read-out: MIC): 4 µg/mL (≈ 9.41 µM); MIC (C. difficile; Culture # 2529, read-out: MIC): 4 µg/mL (≈ 9.41 µM); MIC (Veillonella parvula; Culture # 2479, read-out: MIC): 0.06 µg/mL (≈ 0.141 µM); MIC (Propionibacterium acnes; Culture # 1775, read-out: MIC): 0.06 µg/mL (≈ 0.141 µM); MIC (Clostridium perfringens; Culture # 1771): 0.06 µg/mL (≈ 0.141 µM); MIC (Clostridium perfringens; Culture # 1772): 0.5 µg/mL (≈ 1.18 µM); MIC (Clostridium perfringens; Culture # 1773): 0.06 µg/mL (≈ 0.141 µM); MIC (P. anaerobius; Culture # 1780, read-out: MIC): 0.06 µg/mL (≈ 0.141 µM); MIC (Fusobacterium nucleatum; Culture # 2478, read-out: MIC): 0.12 µg/mL (≈ 0.282 µM); MIC (B. loescheii; Culture # 1767, read-out: MIC): 0.06 µg/mL (≈ 0.141 µM); MIC (P. magnus; Culture # 1778, read-out: MIC): 1 µg/mL (≈ 2.35 µM)

**Q.** Which results are given for `CN[C@H](CC(C)C)C(=O)N[C@H]1C(=O)N[C@@H](CC(N)=O)C(=O)N[C@H]2C(=O)N[C@H]3C(=O)N[C@H](C(=O)N[C@H](C(=O)O)c4cc(O)cc(O)c4-c4cc3ccc4O)[C@H](O)c3ccc(c(Cl)c3)Oc3cc2cc(c3O[C@@H]2O[C@H](CO)[C@@H](O)[C@H](O)[C@H]2O[C@H]2C[C@](C)(N)[C@H](O)[C@H](C)O2)Oc2ccc(cc2Cl)[C@H]1O` [Vancomycin]?
**A.** MIC (Enterobacter aerogenes): > 200 µg/mL; MIC (Klebsiella pneumoniae): > 200 µg/mL; MIC (P. species): 1 µg/mL (≈ 0.69 µM); MIC (Enterococcus faecium): 3.1 µg/mL (≈ 2.14 µM); MIC [1]: 1 µg/mL (≈ 0.69 µM); MIC (B. vulgatus; Phocaeicola vulgatus, 20 h, Culture # 2481): 64 µg/mL (≈ 44.2 µM); MIC (B. vulgatus; Phocaeicola vulgatus, 20 h, Culture # 1762): 32 µg/mL (≈ 22.1 µM); MIC (Bacteriodes fragilis; Culture # 1756, Wilkins-Chalgren agar, 37° C., 48 hours): 32 µg/mL (≈ 22.1 µM); MIC (Bacteriodes fragilis; Culture # 1757): 32 µg/mL (≈ 22.1 µM); MIC (Bacteriodes fragilis; Culture # 1758): 16 µg/mL (≈ 11 µM); MIC (Pseudomonas aeruginosa; Culture # 1680): > 200 µg/mL; MIC (Pseudomonas aeruginosa; Culture # 1681): > 200 µg/mL; MIC (Pseudomonas aeruginosa; Culture # 1682): > 200 µg/mL; MIC (Pseudomonas aeruginosa; Pseudomonas aeruginosa, 20 h): > 200 µg/mL; MIC (Pseudomonas aeruginosa; cipro R, Culture # 1919): > 200 µg/mL; MIC (Pseudomonas aeruginosa; cipro R, Culture # 1920): > 200 µg/mL; MIC (B. disiens): 32 µg/mL (≈ 22.1 µM); MIC (S. pyogenes; Culture # 1671): 3.1 µg/mL (≈ 2.14 µM); MIC (S. pyogenes; const., Culture # 1672): 0.78 µg/mL (≈ 0.538 µM); MIC (S. pyogenes; inducible, Culture # 2548): 0.78 µg/mL (≈ 0.538 µM); MIC (S. epidermidis): 3.1 µg/mL (≈ 2.14 µM); MIC (Streptococcus bovis): 0.78 µg/mL (≈ 0.538 µM); MIC (Providencia stuartii): > 200 µg/mL; MIC (Staphylococcus aureus; Culture # 1662, brain heart infusion agar, 37° C.): 3.1 µg/mL (≈ 2.14 µM); MIC (Staphylococcus aureus; Culture # 1664): 1.56 µg/mL (≈ 1.08 µM); MIC (Staphylococcus aureus; Culture # 1690): 1.56 µg/mL (≈ 1.08 µM); MIC (Staphylococcus aureus; Culture # 2124): 3.1 µg/mL (≈ 2.14 µM); MIC (Staphylococcus aureus; Culture # 2130): 3.1 µg/mL (≈ 2.14 µM); MIC (Staphylococcus aureus; Culture # 2498): 3.1 µg/mL (≈ 2.14 µM); MIC (Staphylococcus aureus; cipro res., Culture # 3384): 1.56 µg/mL (≈ 1.08 µM); MIC (Fusobacterium species): > 64 µg/mL; MIC (B. thetaiotaomicron; [3]): > 64 µg/mL; MIC (B. thetaiotaomicron; Culture # 1765): > 64 µg/mL; MIC (B. thetaiotaomicron; Culture # 1766): > 64 µg/mL; rapidity of mortality (Clostridium difficile; 1 mg/kg versus 10 or 20 mg/kg): more rapid mortality than hamsters treated at 10 or 20 mg/kg; % Mortality (Clostridium difficile; 1 mg/kg/day): 100%; % Mortality (Clostridium difficile; 10 mg/kg/day): 100%; % Mortality (Clostridium difficile; 20 mg/kg/day, orally): 100%; MIC (B. bivius): 32 µg/mL (≈ 22.1 µM); MIC (C. ramosum): 8 µg/mL (≈ 5.52 µM); MIC [2]: > 200 µg/mL; MIC (C. difficile; Culture # 1496): 0.5 µg/mL (≈ 0.345 µM); MIC (C. difficile; Culture # 1497): 0.5 µg/mL (≈ 0.345 µM); MIC (C. difficile; Culture # 1774): 2 µg/mL (≈ 1.38 µM); MIC (C. difficile; Culture # 2025): 0.5 µg/mL (≈ 0.345 µM); MIC (C. difficile; Culture # 2480): > 64 µg/mL; MIC (C. difficile; Culture # 2528): 1 µg/mL (≈ 0.69 µM); MIC (C. difficile; Culture # 2529): 1 µg/mL (≈ 0.69 µM); MIC (Veillonella parvula): > 64 µg/mL; MIC (E. coli; DC-2, Culture # 1674): > 200 µg/mL; MIC (E. coli; H560, Culture # 1675): > 200 µg/mL; MIC (E. coli; Juhl, Culture # 1673): > 200 µg/mL; MIC (E. coli; KNK437, Culture # 1676): > 200 µg/mL; MIC (E. coli; SS, Culture # 2489): 50 µg/mL (≈ 34.5 µM); MIC (Propionibacterium acnes): 0.5 µg/mL (≈ 0.345 µM); MIC (Streptococcus agalactiae): 3.1 µg/mL (≈ 2.14 µM); MIC (Clostridium perfringens; Culture # 1771): > 64 µg/mL; MIC (Clostridium perfringens; Culture # 1772): 0.5 µg/mL (≈ 0.345 µM); MIC (Clostridium perfringens; Culture # 1773): 1 µg/mL (≈ 0.69 µM); MIC (P. cepacia): > 200 µg/mL; MIC (P. anaerobius): 0.5 µg/mL (≈ 0.345 µM); MIC (Fusobacterium nucleatum): > 64 µg/mL; MIC (B. loescheii): 32 µg/mL (≈ 22.1 µM); MIC (Micrococcus luteus; Culture # 2493): 0.78 µg/mL (≈ 0.538 µM); MIC (Micrococcus luteus; Culture # 2517): 3.1 µg/mL (≈ 2.14 µM); MIC (P. magnus): 0.5 µg/mL (≈ 0.345 µM)
